Experiments:
[1] = biological target: T1, human GLP-1R (Homo sapiens, UniProt P43220); test: Human GLP-1 Receptor HEK293 cell cAMP assay, 581 fmol/mg GLP-1R expression density; assay type: cell-based; set-up: expressed in transfected cells; host or cells: HEK293 clonal cell line; conditions: HEK293 cell line with 581 fmol/mg expression density of GLP-1R; for EC50: geometric mean, read-out: EC50 nM (SEM, n), intracellular cAMP response, relative EC50; for Emax: percent of maximal response to GLP-1(7-36)NH2, arithmetic mean, read-out: Emax % (SEM, n), intracellular cAMP response
T1 sequence (P43220 24-463): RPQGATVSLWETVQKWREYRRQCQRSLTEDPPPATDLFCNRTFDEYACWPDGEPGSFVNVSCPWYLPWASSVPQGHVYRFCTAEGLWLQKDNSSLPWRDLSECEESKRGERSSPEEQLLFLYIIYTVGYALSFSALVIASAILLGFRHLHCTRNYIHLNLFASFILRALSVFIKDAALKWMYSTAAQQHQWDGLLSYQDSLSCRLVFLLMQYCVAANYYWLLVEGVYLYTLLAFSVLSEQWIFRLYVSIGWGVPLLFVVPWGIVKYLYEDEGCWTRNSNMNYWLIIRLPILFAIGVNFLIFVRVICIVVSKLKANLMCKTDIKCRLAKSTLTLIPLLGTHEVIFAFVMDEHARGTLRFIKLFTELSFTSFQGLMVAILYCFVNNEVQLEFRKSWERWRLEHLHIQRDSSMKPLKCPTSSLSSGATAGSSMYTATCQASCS
Procedure, shortened: (§1)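 HEK293 clonal lines expressing human GLP-1R, 20-point compound curves, 30 min at 37° C in DMEM with 0.1% casein, 250 μM IBMX, 0.5% DMSO. cAMP by HTRF, converted via standard curve to % of maximal human GLP-1(7-36)NH2 response; relative EC50 and Emax from four-parameter logistic fit.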

[2] = biological target: T1, human GLP-1R; test: Human GLP-1 Receptor HEK293 cell cAMP assay, 104 fmol/mg GLP-1R expression density; assay type: cell-based; set-up: expressed in transfected cells; host or cells: HEK293 clonal cell line; conditions: HEK293 cell line with 104 fmol/mg expression density of GLP-1R; for EC50: geometric mean, read-out: EC50 nM (SEM, n), intracellular cAMP response, relative EC50; for Emax: percent of maximal response to GLP-1(7-36)NH2, arithmetic mean, read-out: Emax % (SEM, n), intracellular cAMP response
Procedure, shortened: as §1

Row | EC50 [1] [nM] | Emax [1] [%] | EC50 [2] [nM] | Emax [2] [%] | SMILES
1 | 440 | 76.2 | 1030 | 42.1 | CNCCOc1cc(C(=O)O)cc2c1nc(Cc1ccc3cc1COCCc1cc(Cl)ccc1COc1cccc-3n1)n2C[C@@H]1CCO1 [Example 57, (S)-2-((5^4-Chloro-3,8-dioxa-2(2,6)-pyridina-1(1,3),5(1,2)-dibenzenacyclononaphane-1^4-yl)methyl)-4-(2-(methylamino)ethoxy)-1-(oxetan-2-ylmethyl)-1H-benzo[d]imidazole-6-carboxylic acid]
2 | 0.633 | 109 | 1.62 | 90 | COCCOc1cc(C(=O)O)cc2c1nc(Cc1cc(F)c3cc1COCCc1cc(ccc1C#N)COc1cccc-3n1)n2C[C@@H]1CCO1 [Example 58, (S)-2-((5^4-Cyano-1^6-fluoro-3,8-dioxa-2(2,6)-pyridina-1,5(1,3)-dibenzenacyclononaphane-1^4-yl)methyl)-4-(2-methoxyethoxy)-1-(oxetan-2-ylmethyl)-1H-benzo[d]imidazole-6-carboxylic acid]
3 | 262 | 90.9 | 515 | 48.4 | CN1CCC(Oc2cc(C(=O)O)cc3c2nc(Cc2ccc4cc2OCCCc2cc(C#N)ccc2COc2cccc-4n2)n3C[C@@H]2CCO2)C1 (stereo partly drawn) [Example 59, 2-((5^4-Cyano-3,9-dioxa-2(2,6)-pyridina-1(1,3),5(1,2)-dibenzenacyclononaphane-1^4-yl)methyl)-4-((1-methylpyrrolidin-3-yl)oxy)-1-(((S)-oxetan-2-yl)methyl)-1H-benzo[d]imidazole-6-carboxylic acid]
4 | 18.1 | 110 | 79.1 | 93.2 | N#Cc1ccc2c(c1)CCOCc1cc(ccc1Cc1nc3c(F)cc(C(=O)O)cc3n1C[C@@H]1CCO1)-c1cccc(n1)OC2 [Example 61, (S)-2-((5^4-cyano-3,8-dioxa-2(2,6)-pyridina-1(1,3),5(1,2)-dibenzenacyclononaphane-1^4-yl)methyl)-4-fluoro-1-(oxetan-2-ylmethyl)-1H-benzo[d]imidazole-6-carboxylic acid]
5 | 285 | 62.2 | 737 | 32.9 | CN(C)C(=O)COc1cc(C(=O)O)cc2c1nc(Cc1ccc3cc1OCCCc1cc(C#N)ccc1COc1cccc-3n1)n2C[C@@H]1CCO1 [Example 62, (S)-2-((5^4-Cyano-3,9-dioxa-2(2,6)-pyridina-1(1,3),5(1,2)-dibenzenacyclononaphane-1^4-yl)methyl)-4-(2-(dimethylamino)-2-oxoethoxy)-1-(oxetan-2-ylmethyl)-1H-benzo[d]imidazole-6-carboxylic acid]
6 | 29.9 | 101 | 112 | 81.1 | CCn1cncc1Cn1c(Cc2ccc3cc2OCCCc2cc(C#N)ccc2COc2cccc-3n2)nc2c(OC)cc(C(=O)O)cc21 [Example 63, 2-((5^4-Cyano-3,9-dioxa-2(2,6)-pyridina-1(1,3),5(1,2)-dibenzenacyclononaphane-1^4-yl)methyl)-1-((1-ethyl-1H-imidazol-5-yl)methyl)-4-methoxy-1H-benzo[d]imidazole-6-carboxylic acid]
7 | 2.13 | 110 | 5.53 | 87.3 | COCCOc1cc(C(=O)O)cc2c1nc(Cc1ccc3cc1COCCc1cc(C#N)ccc1COc1cccc-3n1)n2C[C@@H]1CCO1 [Example 64, (S)-2-((5^4-Cyano-3,8-dioxa-2(2,6)-pyridina-1(1,3),5(1,2)-dibenzenacyclononaphane-1^4-yl)methyl)-4-(2-methoxyethoxy)-1-(oxetan-2-ylmethyl)-1H-benzo[d]imidazole-6-carboxylic acid]
8 | 1.86 | 110 | 4.62 | 98.2 | COCCOc1cc(C(=O)O)cc2c1nc(Cc1ccc3cc1COCCc1cc(ccc1C#N)COc1cccc-3n1)n2C[C@@H]1CCO1 [Example 65, (S)-2-((5^4-Cyano-3,8-dioxa-2(2,6)-pyridina-1,5(1,3)-dibenzenacyclononaphane-1^4-yl)methyl)-4-(2-methoxyethoxy)-1-(oxetan-2-ylmethyl)-1H-benzo[d]imidazole-6-carboxylic acid]
9 | 13.4 | 118 | 54.5 | 82.5 | O=C(O)c1ccc2nc(Cc3ccc4cc3OCCCc3cc(-n5cnc(F)c5)ccc3COc3cccc-4n3)n(C[C@@H]3CCO3)c2c1 [Example 66, (S)-2-((5^4-(4-Fluoro-1H-imidazol-1-yl)-3,9-dioxa-2(2,6)-pyridina-1(1,3),5(1,2)-dibenzenacyclononaphane-1^4-yl)methyl)-1-(oxetan-2-ylmethyl)-1H-benzo[d]imidazole-6-carboxylic acid]
10 | 2.13 | 117 | 6.88 | 91.6 | COCCOc1cc(C(=O)O)cc2c1nc(Cc1cc(F)c3cc1COCc1cc(Cl)ccc1COc1cccc-3n1)n2C[C@@H]1CCO1 [Example 67, (S)-2-((5^4-Chloro-1^6-fluoro-3,7-dioxa-2(2,6)-pyridina-1(1,3),5(1,2)-dibenzenacyclooctaphane-1^4-yl)methyl)-4-(2-methoxyethoxy)-1-(oxetan-2-ylmethyl)-1H-benzo[d]imidazole-6-carboxylic acid]
11 | 6.82 | 115 | 8.72 | 98.5 | COCCOc1cc(C(=O)O)cc2c1nc(Cc1cc(F)c3cc1COCc1cc(C#N)ccc1COc1cccc-3n1)n2C[C@@H]1CCO1 [Example 68, (S)-2-((5^4-Cyano-1^6-fluoro-3,7-dioxa-2(2,6)-pyridina-1(1,3),5(1,2)-dibenzenacyclooctaphane-1^4-yl)methyl)-4-(2-methoxyethoxy)-1-(oxetan-2-ylmethyl)-1H-benzo[d]imidazole-6-carboxylic acid]
12 | 59.8 | 71.6 | 103 | 26.6 | COc1cc(C(=O)NS(=O)(=O)CC2CC2)cc2c1nc(Cc1cc(C)c3cc1OCCCc1cc(F)ccc1COc1cccc-3n1)n2C[C@@H]1CCO1 [Example 69, (S)—N-((Cyclopropylmethyl)sulfonyl)-2-((5^4-fluoro-1^6-methyl-3,9-dioxa-2(2,6)-pyridina-1(1,3),5(1,2)-dibenzenacyclononaphane-1^4-yl)methyl)-4-methoxy-1-(oxetan-2-ylmethyl)-1H-benzo[d]imidazole-6-carboxamide]
13 | 3.11 | 92.3 | 12.6 | 95 | COCCOc1cc(C(=O)O)cc2c1nc(Cc1cc(F)c3cc1COCCc1cc(C#N)cc(F)c1COc1cccc-3n1)n2C[C@@H]1CCO1 [Example 70, (S)-2-((5^4-Cyano-1^6,5^6-difluoro-3,8-dioxa-2(2,6)-pyridina-1(1,3),5(1,2)-dibenzenacyclononaphane-1^4-yl)methyl)-4-(2-methoxyethoxy)-1-(oxetan-2-ylmethyl)-1H-benzo[d]imidazole-6-carboxylic acid]
14 | 138 | 68.4 | 598 | 52.1 | O=C(O)c1ccc2nc(Cc3ccc4cc3OCCCc3cc(-n5ccc(=O)c(F)c5)ccc3COc3cccc-4n3)n(C[C@@H]3CCO3)c2c1 [Example 71, (S)-2-((5^4-(3-Fluoro-4-oxopyridin-1(4H)-yl)-3,9-dioxa-2(2,6)-pyridina-1(1,3),5(1,2)-dibenzenacyclononaphane-1^4-yl)methyl)-1-(oxetan-2-ylmethyl)-1H-benzo[d]imidazole-6-carboxylic acid]
15 | 92.5 | 106 | 348 | 90.4 | Cc1cn(-c2ccc3c(c2)CCCOc2cc(ccc2Cc2nc4ccc(C(=O)O)cc4n2C[C@@H]2CCO2)-c2cccc(n2)OC3)cn1 [Example 72, (S)-2-((5^4-(4-Methyl-1H-imidazol-1-yl)-3,9-dioxa-2(2,6)-pyridina-1(1,3),5(1,2)-dibenzenacyclononaphane-1^4-yl)methyl)-1-(oxetan-2-ylmethyl)-1H-benzo[d]imidazole-6-carboxylic acid]
16 | 21.3 | 106 | 68.5 | 84.1 | O=C(O)c1ccc2nc(Cc3ccc4cc3OCCCc3cc(-n5ccnc5)ccc3COc3cccc-4n3)n(C[C@@H]3CCO3)c2c1 [Example 73, (S)-2-((5^4-(1H-Imidazol-1-yl)-3,9-dioxa-2(2,6)-pyridina-1(1,3),5(1,2)-dibenzenacyclononaphane-1^4-yl)methyl)-1-(oxetan-2-ylmethyl)-1H-benzo[d]imidazole-6-carboxylic acid]
17 | 155 | 92.1 | 533 | 73.3 | O=C(O)c1ccc2nc(Cc3ccc4cc3OCCCc3cc(-n5ccc(=O)cc5)ccc3COc3cccc-4n3)n(C[C@@H]3CCO3)c2c1 [Example 74, (S)-1-(Oxetan-2-ylmethyl)-2-((5^4-(4-oxopyridin-1(4H)-yl)-3,9-dioxa-2(2,6)-pyridina-1(1,3),5(1,2)-dibenzenacyclononaphane-1^4-yl)methyl)-1H-benzo[d]imidazole-6-carboxylic acid]

Reference: patent US20240343740A1, “MACROCYCLIC GLUCAGON-LIKE PEPTIDE 1 RECEPTOR AGONISTS” (Eli Lilly and Company, priority 2021, published 2024)
